What all share (experiment): biochemical
Common to all, as to design: Thermal shift (DSF, SYPRO Orange) Tm shift of recombinant kinase domains at 10 uM compound

One assay deals with T1, BMX (Homo sapiens, UniProt P51813).
T1 sequence (P51813 1-675): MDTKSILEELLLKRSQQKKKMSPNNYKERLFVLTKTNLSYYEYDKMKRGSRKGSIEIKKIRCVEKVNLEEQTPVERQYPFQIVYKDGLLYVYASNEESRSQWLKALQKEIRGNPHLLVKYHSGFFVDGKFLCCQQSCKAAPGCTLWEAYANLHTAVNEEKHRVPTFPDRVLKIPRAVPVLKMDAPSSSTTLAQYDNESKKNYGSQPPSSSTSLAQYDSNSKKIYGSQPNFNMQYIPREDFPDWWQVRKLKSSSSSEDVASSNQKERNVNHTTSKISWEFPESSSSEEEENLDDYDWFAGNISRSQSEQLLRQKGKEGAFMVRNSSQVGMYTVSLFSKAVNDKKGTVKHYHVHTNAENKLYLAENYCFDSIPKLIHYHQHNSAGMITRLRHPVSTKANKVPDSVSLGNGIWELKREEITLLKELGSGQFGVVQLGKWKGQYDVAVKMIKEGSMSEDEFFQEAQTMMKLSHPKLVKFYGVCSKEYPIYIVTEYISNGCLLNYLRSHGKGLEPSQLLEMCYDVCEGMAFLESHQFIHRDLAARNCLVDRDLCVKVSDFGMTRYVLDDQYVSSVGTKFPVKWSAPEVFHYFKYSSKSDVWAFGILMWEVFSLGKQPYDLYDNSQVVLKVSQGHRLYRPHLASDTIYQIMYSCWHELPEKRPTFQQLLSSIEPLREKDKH

The next assay addresses T2, EPHB1 (Homo sapiens, UniProt P54762).
T2 sequence (P54762 1-984): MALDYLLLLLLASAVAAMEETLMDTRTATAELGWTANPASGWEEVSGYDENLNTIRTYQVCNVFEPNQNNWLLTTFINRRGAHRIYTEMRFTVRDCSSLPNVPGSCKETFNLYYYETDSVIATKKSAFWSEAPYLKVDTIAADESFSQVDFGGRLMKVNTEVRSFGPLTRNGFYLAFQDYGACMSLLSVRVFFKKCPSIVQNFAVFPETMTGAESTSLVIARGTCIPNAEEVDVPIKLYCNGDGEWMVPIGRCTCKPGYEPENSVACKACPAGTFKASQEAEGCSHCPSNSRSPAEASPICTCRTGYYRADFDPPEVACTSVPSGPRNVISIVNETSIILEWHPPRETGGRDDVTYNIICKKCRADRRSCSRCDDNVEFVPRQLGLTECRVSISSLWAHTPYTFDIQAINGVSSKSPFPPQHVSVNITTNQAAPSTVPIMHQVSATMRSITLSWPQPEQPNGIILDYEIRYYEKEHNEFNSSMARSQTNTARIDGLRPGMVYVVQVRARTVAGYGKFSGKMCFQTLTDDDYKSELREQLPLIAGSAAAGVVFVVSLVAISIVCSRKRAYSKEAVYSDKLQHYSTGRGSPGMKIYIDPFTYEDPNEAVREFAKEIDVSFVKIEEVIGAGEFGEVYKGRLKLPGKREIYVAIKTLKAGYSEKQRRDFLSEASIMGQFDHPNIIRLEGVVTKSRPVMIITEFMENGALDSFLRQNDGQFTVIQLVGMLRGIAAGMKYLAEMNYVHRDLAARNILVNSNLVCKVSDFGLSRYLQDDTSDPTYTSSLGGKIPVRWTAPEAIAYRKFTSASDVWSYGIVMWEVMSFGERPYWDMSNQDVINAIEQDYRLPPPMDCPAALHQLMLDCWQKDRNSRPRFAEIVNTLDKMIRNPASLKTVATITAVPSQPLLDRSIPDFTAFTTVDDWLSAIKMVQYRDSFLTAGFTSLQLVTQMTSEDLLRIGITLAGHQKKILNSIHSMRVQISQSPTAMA

The target in another assay is FLT1 (Homo sapiens, UniProt P17948).
Chain of FLT1 (P17948 whole entry): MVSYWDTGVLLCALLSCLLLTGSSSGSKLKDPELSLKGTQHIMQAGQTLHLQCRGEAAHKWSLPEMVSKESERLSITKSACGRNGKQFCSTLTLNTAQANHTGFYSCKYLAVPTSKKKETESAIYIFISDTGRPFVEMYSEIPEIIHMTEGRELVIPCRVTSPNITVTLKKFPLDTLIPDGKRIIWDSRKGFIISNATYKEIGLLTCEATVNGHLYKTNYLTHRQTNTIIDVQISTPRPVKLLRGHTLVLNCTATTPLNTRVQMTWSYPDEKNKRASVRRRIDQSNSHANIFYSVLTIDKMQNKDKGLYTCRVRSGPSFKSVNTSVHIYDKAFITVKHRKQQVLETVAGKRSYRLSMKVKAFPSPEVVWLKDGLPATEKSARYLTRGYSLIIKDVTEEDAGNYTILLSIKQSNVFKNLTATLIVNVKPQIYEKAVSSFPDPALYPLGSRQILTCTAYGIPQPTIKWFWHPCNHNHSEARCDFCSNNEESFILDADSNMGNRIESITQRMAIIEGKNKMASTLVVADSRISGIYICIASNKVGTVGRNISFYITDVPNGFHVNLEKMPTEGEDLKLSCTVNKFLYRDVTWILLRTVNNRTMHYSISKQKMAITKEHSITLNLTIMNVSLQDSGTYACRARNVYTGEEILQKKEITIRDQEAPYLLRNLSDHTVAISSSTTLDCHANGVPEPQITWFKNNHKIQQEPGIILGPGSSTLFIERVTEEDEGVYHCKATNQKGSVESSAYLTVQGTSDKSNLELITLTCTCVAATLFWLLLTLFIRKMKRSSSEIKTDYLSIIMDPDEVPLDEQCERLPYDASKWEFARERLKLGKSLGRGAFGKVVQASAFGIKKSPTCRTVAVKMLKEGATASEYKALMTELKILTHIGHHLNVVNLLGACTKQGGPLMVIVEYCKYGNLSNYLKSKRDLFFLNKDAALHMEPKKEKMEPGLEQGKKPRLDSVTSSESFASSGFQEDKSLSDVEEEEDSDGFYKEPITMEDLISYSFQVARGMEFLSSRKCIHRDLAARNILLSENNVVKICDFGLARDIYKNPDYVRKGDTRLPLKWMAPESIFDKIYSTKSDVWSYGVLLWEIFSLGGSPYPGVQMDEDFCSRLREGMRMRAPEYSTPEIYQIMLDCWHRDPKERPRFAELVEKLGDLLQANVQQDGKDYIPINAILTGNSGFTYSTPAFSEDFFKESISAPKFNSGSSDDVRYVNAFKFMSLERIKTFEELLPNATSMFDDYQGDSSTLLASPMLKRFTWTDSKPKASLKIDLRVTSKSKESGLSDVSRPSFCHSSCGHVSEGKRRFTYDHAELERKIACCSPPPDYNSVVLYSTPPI
The next assay concerns the target T3, MAP2K6 (Homo sapiens, UniProt P52564).
T3 sequence (P52564 1-334): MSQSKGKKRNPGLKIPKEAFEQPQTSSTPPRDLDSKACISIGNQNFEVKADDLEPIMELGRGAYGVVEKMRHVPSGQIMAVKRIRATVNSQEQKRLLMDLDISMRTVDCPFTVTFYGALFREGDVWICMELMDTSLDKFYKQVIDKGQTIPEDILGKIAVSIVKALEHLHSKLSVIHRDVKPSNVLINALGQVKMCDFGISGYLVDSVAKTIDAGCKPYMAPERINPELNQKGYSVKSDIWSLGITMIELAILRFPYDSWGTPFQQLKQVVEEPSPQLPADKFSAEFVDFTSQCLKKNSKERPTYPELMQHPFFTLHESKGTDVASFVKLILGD

The next assay has as its target T4, MAP2K7 (Homo sapiens, UniProt O14733).
T4 sequence (O14733 1-419): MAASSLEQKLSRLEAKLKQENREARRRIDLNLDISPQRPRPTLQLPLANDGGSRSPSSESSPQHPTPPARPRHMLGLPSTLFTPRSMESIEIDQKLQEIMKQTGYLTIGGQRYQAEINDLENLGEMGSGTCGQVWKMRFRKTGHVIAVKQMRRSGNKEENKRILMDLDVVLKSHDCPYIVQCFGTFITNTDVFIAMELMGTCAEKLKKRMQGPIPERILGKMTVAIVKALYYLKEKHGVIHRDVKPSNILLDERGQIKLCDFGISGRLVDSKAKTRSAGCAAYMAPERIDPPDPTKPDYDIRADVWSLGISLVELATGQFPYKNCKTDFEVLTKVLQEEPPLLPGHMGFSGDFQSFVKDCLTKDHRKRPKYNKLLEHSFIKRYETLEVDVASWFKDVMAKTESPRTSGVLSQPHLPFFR

For a further assay, the target named is T5, RSK1_b (Homo sapiens, UniProt Q15418).
T5 construct: gene RPS6KA1; second (C-terminal) kinase domain
T5 sequence (Q15418 whole entry, the tested form may be a part): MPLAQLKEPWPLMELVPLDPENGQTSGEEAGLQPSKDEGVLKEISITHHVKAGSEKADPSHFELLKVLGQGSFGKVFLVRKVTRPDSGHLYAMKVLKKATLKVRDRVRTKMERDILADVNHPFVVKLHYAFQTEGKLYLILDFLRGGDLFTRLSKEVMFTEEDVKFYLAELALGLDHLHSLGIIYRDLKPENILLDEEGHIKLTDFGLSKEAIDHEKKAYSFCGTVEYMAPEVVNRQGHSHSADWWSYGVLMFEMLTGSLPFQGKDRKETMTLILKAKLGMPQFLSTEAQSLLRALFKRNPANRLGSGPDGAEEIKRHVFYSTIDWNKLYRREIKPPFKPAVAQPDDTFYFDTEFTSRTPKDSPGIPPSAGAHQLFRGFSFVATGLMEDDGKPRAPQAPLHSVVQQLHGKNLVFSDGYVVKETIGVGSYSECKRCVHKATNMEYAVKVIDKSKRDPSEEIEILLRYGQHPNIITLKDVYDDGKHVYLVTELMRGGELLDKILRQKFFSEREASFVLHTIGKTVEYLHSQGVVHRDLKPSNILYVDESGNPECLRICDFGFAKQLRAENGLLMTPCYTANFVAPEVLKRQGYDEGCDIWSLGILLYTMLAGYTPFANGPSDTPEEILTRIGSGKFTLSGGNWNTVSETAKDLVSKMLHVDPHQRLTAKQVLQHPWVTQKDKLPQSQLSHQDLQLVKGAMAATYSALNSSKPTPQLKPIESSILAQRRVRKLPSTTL

Like-named read-outs stand apart in the source and are kept apart here.

Protocol for BMX: (§1) S23 Thermal stability kinase selectivity. The assay was performed as previously described. 9,10 Briefly, recombinant protein kinase domains at a concentration of 2 μM were mixed with 10 μM compound in a buffer containing 20 mM HEPES, pH 7.5, and 500 mM NaCl. SYPRO Orange (5000×, Invitrogen) was added as a fluorescence probe (1 µl per mL). Subsequently, temperature-dependent protein unfolding profiles were measured using the QuantStudio™ 5 realtime PCR machine (Thermo Fisher). […] The temperature was raised with a step rate of 3°C per minute. Data points were analysed with the internal software (Thermal Shift SoftwareTM Version 1.4, Thermo Fisher) using the Boltzmann equation to determine the inflection point of the transition curve.
Protocol for EPHB1: as §1
Protocol for FLT1: as §1
Protocol for MAP2K6: as §1
Protocol for MAP2K7: as §1
Protocol for RSK1_b: as §1

For `COc1ccc(OC(C)C)cc1Nc1cncc(-c2ccc(C(=O)O)cc2)n1` [7c], the ΔTm at 10 µM was 1 °C on BMX (read-out: 7c); 1 °C on EPHB1 (read-out: 7c); 5 °C at FLT1 (read-out: 7c); 0 °C on MAP2K6 (read-out: 7c); -1 °C at MAP2K7 (read-out: 7c); 1 °C at RSK1_b (read-out: 7c).

With `CC(C)Oc1ccc2ccn(-c3cncc(-c4ccc(C(=O)O)cc4)n3)c2c1` [6c], the ΔTm at 10 µM on BMX (read-out: 6c) came out at 2 °C; at EPHB1 (read-out: 6c), 2 °C; on FLT1 (read-out: 6c), 7 °C; on MAP2K6 (read-out: 6c), 3 °C; at MAP2K7 (read-out: 6c), 0 °C; at RSK1_b (read-out: 6c), 2 °C.

In the case of `CC(C)Nc1ccc2cnn(-c3cncc(-c4ccc(C(=O)O)cc4)n3)c2c1` [compound 2, 2], the ΔTm at 10 µM at BMX (read-out: 2) came to 3 °C; on EPHB1 (read-out: 2) it was 2 °C; at FLT1 (read-out: 2), 7 °C; at MAP2K6 (read-out: 2), 2 °C; on MAP2K7 (read-out: 2) it was 0 °C; on RSK1_b (read-out: 2), 4 °C.

The values above are taken from paper doi:10.1101/2023.12.04.569845, “Identification of 4-(6-((2-methoxyphenyl)amino)pyrazin-2-yl)benzoic acids as CSNK2A inhibitors with antiviral activity and improved selectivity over PIM3” (bioRxiv, 2023).
